From article PMC8592419 (PLoS ONE, 2021)
In brackets after ≈: the same amount, converted by molar mass. Where two headings read alike, the source gives them in different places. Where a SMILES comes first, the peptide text is derived from it.

How the values were obtained:
[1] = tested on: M. abscessus clinical isolate MAB09; assay: In vitro susceptibility testing (DST), CLSI broth microdilution; format: cell-based, M. abscessus subsp. abscessus; set-up: key to DST profile, interpretation, Day 3 / DST profile, interpretation, Day 5 / DST profile, interpretation, Day 14: S, susceptible; I, intermediate; R, resistant; settings: for MIC: Mycobacteroides abscessus
Description: (§1) Drug susceptibility testing (DST) was performed according to the Clinical and Laboratory Standards Institute (CLSI) guidelines M24-A2 [42] using the broth microdilution method to determine the minimum inhibitory concentration (MIC). […] Colonies were grown at an adjusted cell density to a 0.5 McFarland standard and further diluted to 5×10^5 CFU/ml. […] These were then incubated at 37°C for 3, 5 and 14 days. The MIC was defined as the concentration in which no visible growth was observed. The results were interpreted according to the guidelines of CLSI. Inducible resistance was inferred by changes in MIC values from being susceptible at day 3 to resistant at day 14.

[2] = tested on: M. abscessus clinical isolate MAB08; assay: as above; format: cell-based, M. abscessus subsp. abscessus; set-up: key to DST profile, interpretation, Day 3 / DST profile, interpretation, Day 5 / DST profile, interpretation, Day 14: S, susceptible; I, intermediate; R, resistant; settings: for MIC: Mycobacteroides abscessus
Description: as §1

[3] = tested on: M. abscessus clinical isolate MAB07; assay: as above; format: cell-based, M. abscessus subsp. abscessus; set-up: key to DST profile, interpretation, Day 3 / DST profile, interpretation, Day 5 / DST profile, interpretation, Day 14: S, susceptible; I, intermediate; R, resistant; settings: for MIC: Mycobacteroides abscessus
Description: as §1

[4] = tested on: M. abscessus clinical isolate MAB06; format: cell-based, M. abscessus subsp. abscessus; settings: 3 days at 37°C
Description: (§2) Briefly, serial dilutions of the AMPs were prepared with potassium phosphate buffer (PPB) from the concentration range of 3.125 to 400 μg/ml and then 50 μl of each dilution were added to each 96-well plate. Colonies of the isolate were suspended and then further diluted in Mueller-Hinton broth to obtain a final concentration of 1×10^3 CFU/ml (optimized according to the available AMP stock concentration). Fifty microliters of this inoculum were added to each well of the plates. The plates were incubated for 3 days at 37°C. Plain media and bacterial suspensions without AMPs were used as negative and positive controls. The MIC values were read and recorded. All assays were performed in duplicate and two independent experiments.
(§3) For the in vitro antimicrobial susceptibility, the same protocol as described above was used. The culture plates were further incubated up to 3 days at 37°C. The MIC values were read and recorded.

[5] = tested on: clinical isolates of M. abscessus; assay: In vitro susceptibility of potential AMPs, 3 days, summary over isolates; format: cell-based, Mycobacterium abscessus; settings: isolates MAB01 and MAB03
Description: as §2, §3

[6] = tested on: human red blood cells (RBCs); assay: Hemolytic toxicity test; format: cell-based; settings: for Hemolytic activities (%hemolysis): human RBCs, 1 h at 37°C, mean±SD of duplicates, two independent experiments
Description: For the hemolytic toxicity test, red blood cells (RBCs) from fresh blood samples of healthy volunteers were obtained by centrifugation at 1,000 rpm for 5 min. The cells were washed three times with sterile phosphate buffered saline (PBS) and adjusted into 1×10^8 cells/ml. AMPs were diluted with PPB in ranging from 6.25 to 400 μg/ml. Fifty microliters of the RBC suspensions and 50 μl of AMP solutions were added to 1.5 ml sterile microtubes, incubated for 1 h at 37°C and then centrifuged at 1,000 rpm for 5 min. The supernatants were transferred to new 96-well microtiter plates for measurement of the absorbance at 540 nm using a microplate reader. RBC suspensions treated with 2% (v/v) Triton X-100 and PBS solution were used as positive and negative controls. The percentages of hemolysis were calculated using the following formula: % of RBC lysis = 100 × [(Test—PBS) / (Positive control—PBS)]. All assays were performed in duplicate and two independent experiments.

[7] = tested on: M. abscessus clinical isolate MAB13; format: cell-based, M. abscessus subsp. massiliense; settings: 3 days at 37°C
Description: as §2, §3

[8] = tested on: M. abscessus clinical isolate MAB04; assay: In vitro antimicrobial susceptibility of potential AMPs, broth microdilution, 3 days; format: cell-based, M. abscessus subsp. abscessus; settings: 3 days at 37°C
Description: as §2, §3

[9] = tested on: M. abscessus clinical isolate MAB08; assay: as above; format: cell-based, M. abscessus subsp. abscessus; settings: 3 days at 37°C
Description: as §2, §3

[10] = tested on: M. abscessus clinical isolate MAB15; assay: as above; format: cell-based, M. abscessus subsp. massiliense; settings: 3 days at 37°C
Description: as §2, §3

[11] = tested on: M. abscessus clinical isolate MAB16; assay: as above; format: cell-based, M. abscessus subsp. massiliense; settings: 3 days at 37°C
Description: as §2, §3

[12] = tested on: sixteen clinical Mab isolates; assay: 24-hour bactericidal activity assay, summary over isolates; format: cell-based, Mycobacterium abscessus; settings: majority of the tested strains (10/16 isolates); equivalent of <50 μg/ml
Description: as §2
Potential AMPs from the screening assays were subjected to determine the 24-hour bactericidal activity assays (corresponding to the common time of administration) with sixteen clinical Mab isolates using the protocol as described above. To observe the early antimicrobial activities, the plates were incubated for 24 h at 37°C. The samples from each well were further diluted in 0.05% Tween 80 and inoculated on Mueller-Hinton agar. After incubation for 3 days at 37°C, the colony-forming units (CFUs) were counted and calculated for the percentage of killing using the following formula: % killing = 1 - (CFU sample/ CFU control) ×100.

[13] = not given; remark: listed apart in the source
[14] = 72 h, day 3, read-out: DST profile, MIC value, Day 3
[15] = 120 h, day 5, read-out: DST profile, MIC value, Day 5
[16] = 336 h, day 14, read-out: DST profile, MIC value, Day 14

Row | Structure (SMILES) | Antimicrobial peptides against M. abscessus isolates, MIC value [4] | MIC values after 3 days [5] | Hemolytic activities (%hemolysis) ([6]; 6.25 µg/mL) | Hemolytic activities (%hemolysis) ([6]; 12.5 µg/mL) | Hemolytic activities (%hemolysis) ([6]; 25 µg/mL) | Hemolytic activities (%hemolysis) ([6]; 50 µg/mL) | Hemolytic activities (%hemolysis) ([6]; 100 µg/mL) | Hemolytic activities (%hemolysis) ([6]; 200 µg/mL) | Hemolytic activities (%hemolysis) ([6]; 400 µg/mL) | Antimicrobial peptides against M. abscessus isolates, MIC value [7] | Antimicrobial peptides against M. abscessus isolates, MIC value [8] | Antimicrobial peptides against M. abscessus isolates, MIC value [9] | Antimicrobial peptides against M. abscessus isolates, MIC value [10] | Antimicrobial peptides against M. abscessus isolates, MIC value [11] | further results
1 | CC[C@H]1OC(=O)[C@H](C)[C@@H](O[C@H]2C[C@@](C)(OC)[C@@H](O)[C@H](C)O2)[C@H](C)[C@@H](O[C@@H]2O[C@H](C)C[C@H](N(C)C)[C@H]2O)[C@](C)(OC)C[C@@H](C)C(=O)[C@H](C)[C@@H](O)[C@]1(C)O [CLA, Clarithromycin] | – | – | – | – | – | – | – | – | – | – | – | – | – | – | MIC [1, 14]: 0.25 µg/mL (≈ 0.334 µM); MIC [1, 15]: 8 µg/mL (≈ 10.7 µM); MIC [1, 16]: 8 µg/mL (≈ 10.7 µM); DST profile, interpretation, Day 3 ([1]; day 3, CLSI interpretation): S; DST profile, interpretation, Day 5 ([1]; day 5, CLSI interpretation): R; DST profile, interpretation, Day 14 ([1]; day 14, CLSI interpretation): R; MIC [2, 14]: 1 µg/mL (≈ 1.34 µM); MIC [2, 15]: 2 µg/mL (≈ 2.67 µM); MIC [2, 16]: 8 µg/mL (≈ 10.7 µM); DST profile, interpretation, Day 3 ([2]; day 3, CLSI interpretation): S; DST profile, interpretation, Day 5 ([2]; day 5, CLSI interpretation): S; DST profile, interpretation, Day 14 ([2]; day 14, CLSI interpretation): R; MIC [3, 14]: 4 µg/mL (≈ 5.35 µM); MIC [3, 15]: 16 µg/mL (≈ 21.4 µM); MIC [3, 16]: 16 µg/mL (≈ 21.4 µM); DST profile, interpretation, Day 3 ([3]; day 3, CLSI interpretation): I; DST profile, interpretation, Day 5 ([3]; day 5, CLSI interpretation): R; DST profile, interpretation, Day 14 ([3]; day 14, CLSI interpretation): R
2 | CC[C@H](C)[C@H](NC(=O)[C@H](CCCCN)NC(=O)[C@H](CCCNC(=N)N)NC(=O)CNC(=O)[C@H](CC(C)C)NC(=O)[C@H](CO)NC(=O)[C@H](CCCNC(=N)N)NC(=O)[C@H](CC(C)C)NC(=O)CNC(=O)CN)C(=O)N[C@@H](CC(C)C)C(=O)N[C@@H](CCCNC(=N)N)C(=O)N[C@@H](C)C(=O)N[C@@H](Cc1c[nH]c2ccccc12)C(=O)N[C@@H](CCCCN)C(=O)O [S63] (H-GGLRSLGRKILRAWK-OH) | >400 µg/mL | 3.65 to 7.30 µM | -0.53±0.75% | 3.52±4.98% | 5.81±3.73% | 7.04±3.98% | 8.27±3.73% | 9.68±2.74% | 10.56±1.99% | >400 µg/mL | >400 µg/mL | >400 µg/mL | >400 µg/mL | >400 µg/mL | hemolysis at the MICs level ([6]; at the MICs level, single figure of the abstract): 1.50%; MIC with ~99% killed within 24 h [12]: < 29.22 µM
3 | CC[C@H](C)[C@H](NC(=O)[C@H](CCCCN)NC(=O)[C@H](CCCNC(=N)N)NC(=O)CNC(=O)[C@H](CC(C)C)NC(=O)[C@H](CO)NC(=O)[C@H](CCCNC(=N)N)NC(=O)[C@H](CC(C)C)NC(=O)CNC(=O)CN)C(=O)N[C@@H](CC(C)C)C(=O)N[C@@H](CCCNC(=N)N)C(=O)N[C@@H](C)C(=O)N[C@@H](Cc1c[nH]c2ccccc12)C(=O)N[C@@H](CCCCN)C(=O)N[C@@H](CCCCN)C(=O)N[C@@H](Cc1ccc(O)cc1)C(=O)O [S61] (H-GGLRSLGRKILRAWKKY-OH) | >400 µg/mL | 3.13 µM (≈ 6.27 µg/mL) | -0.18±0.75% | 4.58±4.48% | 6.34±4.98% | 9.15±1.99% | 10.74±0.75% | 11.44±0.25% | 13.03±0.00% | >400 µg/mL | >400 µg/mL | >400 µg/mL | >400 µg/mL | >400 µg/mL | MIC after 3 days, MAB01 and MAB03: < 50 µg/mL; MIC within 24 h, majority of isolates (10/16) [13]: < 50 µg/mL; MIC with ~99% killed within 24 h, in μM [12]: less than 24.97 μM
